Results on six compounds are retold here after patent US20060159669A1, “Novel uses of PPAR modulators and professional APCs manipulated by the same” (priority 2003, published 2006).

Structures are written as SMILES. Entries after “also recorded” stand apart in the source; their conditions may differ.

The subject of test [1] is CD1d. Kind of test: CD1d mRNA expression (RT-PCR, Affymetrix microarray) in monocyte-derived DC. In kind it is cell-based, human. As to conditions: IDC; for Induction of CD1d by receptor-specific agonists: 2.5 microM RSG, 200 nM GW7845, 1 microM GW501516, 20 microM WY14643, 1 microM T0901317, FIG. 5B. The protocol: DC generation and maturation. Highly enriched monocytes (98% CD14+) were obtained from buffy coats of healthy donors (provided by the local blood center) by Ficoll gradient centrifugation and immunomagnetic cell separation using anti-CD14-conjugated microbeads (VarioMACS; Miltenyi Biotec). Human monocyte-derived IDCs were prepared as described previously (Sallusto and Lanzavecchia, 1994) with minor modification. In brief, monocytes were resuspended into six-well culture dishes at a density of 1.5×10^6 cells/ml and cultured in RPMI 1640 supplemented with 10% FBS (Invitrogen), containing 800 U/ml GM-CSF (Leucomax) and 500 U/ml IL-4 (Peprotech). Cells were cultured for 5 or 6 days and the IL-4 and GM-CSF addition was repeated at day 2 to obtain a population of immature DCs. In some experiments FBS was replaced with human AB serum (Sigma). To obtain MDCs, IDCs were treated with a mixture of cytokines: 10 ng/ml TNF-alpha (Peprotech), 10 ng/ml IL-1beta (Peprotech), 1000 U/ml IL-6 (Peprotech), 1 microg/ml PGE2 (Sigma) and 800 U/ml GM-CSF for 24 hr (Jonuleit et al., 1997).
(§1) Ligands or vehicle control (50% DMSO/ethanol) were added to the cell culture starting from the first day.
Microarray experiment. Total RNA was isolated using Trizol Reagent (Invitrogen) and further purified by using the RNeasy kit (Quiagen). cRNA was generated from 5 microg of total RNA by using the SuperScript Choice kit (Invitrogen) and the High Yield RNA transcription labeling kit (Enzo Diagnostics). Fragmented cRNA was hybridized to Affymetrix (Santa Clara, Calif.) arrays (HU95A) according to Affymetrix standard protocols. Preliminary data analysis was performed by the Microarray Core Facility at University of California at Irvine. Further analysis was performed using GeneSpring 6.0 (Silicon Genetics, Redwood City, Calif.). These analyses provided a signal for each specific transcript that was subsequently normalized by comparing to the median signal (arbitrary value of 1.0) obtained from the whole array.
(§2) Real-time RT-PCR. […] The following primers and probes were used: […]

Test [2] deals with T1, PPARg (Homo sapiens, UniProt P37231).
T1 construct: endogenous in cells; host or cells: human monocyte-derived dendritic cells (CD14+ monocytes from buffy coats, GM-CSF + IL-4)
T1 sequence (P37231 1-505): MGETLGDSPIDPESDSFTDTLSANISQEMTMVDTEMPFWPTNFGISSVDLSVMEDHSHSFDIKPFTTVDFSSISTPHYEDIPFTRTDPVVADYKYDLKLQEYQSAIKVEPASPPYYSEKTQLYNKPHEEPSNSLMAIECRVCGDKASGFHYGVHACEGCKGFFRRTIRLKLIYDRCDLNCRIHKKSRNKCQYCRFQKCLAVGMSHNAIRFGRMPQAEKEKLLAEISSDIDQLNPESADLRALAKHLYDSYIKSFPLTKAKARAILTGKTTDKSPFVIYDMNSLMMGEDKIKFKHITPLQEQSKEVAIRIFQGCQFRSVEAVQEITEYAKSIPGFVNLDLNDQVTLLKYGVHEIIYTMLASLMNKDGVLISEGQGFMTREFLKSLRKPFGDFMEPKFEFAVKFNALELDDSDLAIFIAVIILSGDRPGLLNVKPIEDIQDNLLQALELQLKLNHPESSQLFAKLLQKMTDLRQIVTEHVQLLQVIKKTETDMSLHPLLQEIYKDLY
In words: FABP4 and other PPARg target gene mRNA expression by real-time RT-PCR in differentiating monocyte-derived DC. In kind it is cell-based. As to conditions: for Induction of FABP4 by receptor-specific agonists: IDC, 2.5 microM RSG, 200 nM GW7845, 1 microM GW501516, 20 microM WY14643, 1 microM T0901317, FIG. 5A. Here is the method:
DC generation and maturation. Highly enriched monocytes (98% CD14+) were obtained from buffy coats of healthy donors (provided by the local blood center) by Ficoll gradient centrifugation and immunomagnetic cell separation using anti-CD14-conjugated microbeads (VarioMACS; Miltenyi Biotec). […] Cells were cultured for 5 or 6 days and the IL-4 and GM-CSF addition was repeated at day 2 to obtain a population of immature DCs. In some experiments FBS was replaced with human AB serum (Sigma).
as §1, §2
(Quantitative PCR measures a nucleic acid by following its amplification.)

The test system of test [3] is iNKT cells. In words: Expansion of iNKT cells by alpha-GalCer pulsed DC in autologous PBMC coculture. In kind it is cell-based, human. To be noted: for Induction of iNKT (Valpha24+ Vbeta11+) cell expansion vs untreated DC: 5-day coculture. The protocol: FACS analysis. Cell staining was performed using alpha-GalCer-loaded APC-labeled CD1d-tetramer (kindly provided by A. Herbelin) and FITC-, Cyc- or PE-conjugated mAbs. Labeled antibodies for flow cytometry included anti-CD161-Cyc, CD8-PE, CD25-PE, CD1a-PE, CD1d-PE, CD86-PE, CD83-PE, CD206-PE, CD3- FITC, CD36-FITC, CD80-FITC, CD209-FITC, HLA-DR-FITC and isotype-matched controls (BD PharMingen), anti-Vbetal 1-PE and anti-Valpha24-FITC (Immunotech). The cells were assessed for fluorescence intensity using EPICS Elite flow cytometer (Beckman Coulter) or with FACS Calibur cytometer (Beckton Dickinson). Data analysis was performed using WinMDI software (Joseph Trotter, The Scripps Research Institute, La Jolla, Calif.).
Expansion of iNKT cells. IDCs were treated with or without the inflammatory mixture as described previously and with 100ng/ml alpha-GalCer for 24 hr to obtain alpha-GalCer-loaded MDC or IDC, respectively. alpha-GalCer pulsed IDCs or MDCs (2×10^5 cells/ml) were cocultured with 2×10^6 monocyte depleted autologous PBMC for 5 days in 24 well plates. The expansion of iNKT cells was monitored by quantifying Valpha24+ Vbetal 1+ and Valpha24+ CD161+ cells by FACS analysis. The specificity of CD1d-restricted NKT cells was also verified by alpha-GalCer loaded APC-labelled CD1d tetramer staining.

In the case of `COC(=O)c1ccccc1N[C@@H](Cc1ccc(OCCc2nc(-c3ccccc3)oc2C)cc1)C(=O)O` [GW7845], the “Induction of CD1d by receptor-specific agonists” value in test [1] is reported as “turn on gene expression”. For the same compound, the “Induction of FABP4 by receptor-specific agonists” value in test [2] is “specifically up-regulated”. With `O=C(Nc1ccccc1)c1cc([N+](=O)[O-])ccc1Cl` [GW9662], the “Inhibition of PPARg specific induction of CD1d by antagonist” value in test [1] (5 microM GW9662 with 2.5 microM RSG) is recorded as “inhibited”. The “Block of the more pronounced FABP4 increase in human AB serum” value in test [2] (5 microM GW9662, FBS replaced with human AB serum) is “blocked effectively”. The “Inhibition of FABP4 up-regulation by PPARg antagonist” value in test [2] (5 microM GW9662, untreated and 2.5 microM RSG treated DC) was “able to prevent the up-regulation of FABP4; also recorded: inhibited”.

`CN(CCOc1ccc(CC2SC(=O)NC2=O)cc1)c1ccccn1` (stereo not shown) [RSG, Rosiglitazone]: the “Induction of iNKT (Valpha24+ Vbeta11+) cell expansion vs untreated DC” value is recorded as 1.5-10.25 fold in test [3] (alpha-GalCer loaded RSG treated IDC, depending on the donor) and 1.1-4 fold in test [3] (alpha-GalCer loaded RSG treated MDC as stimulator).

Regarding `O=S(=O)(c1ccccc1)N(CC(F)(F)F)c1ccc(C(O)(C(F)(F)F)C(F)(F)F)cc1` [T0901317], the “Induction of CD1d by receptor-specific agonists” value in test [1] was “failed to activate CD1d”. On to `Cc1cccc(Nc2cc(Cl)nc(SCC(=O)O)n2)c1C` [Wy14,643], for which, in test [2], the “Induction of FABP4 by receptor-specific agonists” value was “much less potently”. As for `CCCCCCCCCCCCCCCCCCCCCCCCCC(=O)N[C@@H](CO[C@H]1O[C@H](CO)[C@H](O)[C@H](O)[C@H]1O)[C@H](O)[C@H](O)CCCCCCCCCCCCCC` [alpha-GalCer, alpha-galactosyl-ceramide], the “Expansion of Valpha24+ Vbeta11+ iNKT cells by glycolipid loading of DC” value in test [3] (DC pulsed with 100ng/ml alpha-GalCer for 24 hr, 5 days coculture) is “necessary for the potent induction; also recorded: remarkable expansion of iNKT cells”.
